IC50 data for 27 molecules are collected here from patent US20150157739A1, “Imidazo[2,1]thiazol-3-one derivatives” (Hoffmann-La Roche Inc., priority 2012, published 2015).

One may read the IC50 as the concentration needed to halve the response being measured.

Test [1] deals with T1, aggregated recombinant human-microtubule associated protein Tau (Homo sapiens, UniProt P10636).
T1 construct: Recombinant human-microtubule associated protein Tau purified from E. coli is aggregated at a concentration of 5 μM with Arachidonic Acid (100 μM) in Tris 10 mM pH8, 24 h at 37° C
Description: Thiazin-red R displacement fluorescence assay on aggregated Tau. The note with it: displacement of Thiazin-red R from aggregated Tau; compound 0.3 nM to 10000 nM; 30 min room temperature; Ex 531 nm/Em 595 nm. Type of test: binding. The procedure: (§1) Assay for Determination of […] for Tau and A-Beta
(§2) Recombinant human-microtubule associated protein Tau purified from E. coli is aggregated at a concentration of 5 μM with Arachidonic Acid (100 μM) in Tris 10 mM pH8, 24 h at 37° C. Synthetic Aβ40 is aggregated at a concentration of 50 μM with Arachidonic Acid (100 μM) in Tris 10 mM pH8, for three days at 37° C., under shaking at 150 rpm.
(§3) A saturation analysis of Thiazin-red R to the aggregated proteins is done to determine the affinity (Kd) of the Thiazin-red R to the aggregated protein.
(§4) Thiazin-red R will be added at the concentration corresponding to the Kd to the respective aggregated protein binding site, to induce a fluorescent signal that can be inhibited by the addition of a displacer compound.
(§5) In parallel, auto fluorescence of the compound is measured together with the aggregated proteins, but without Thiazin-red R. As negative control, ligand and aggregated protein is used and as positive control, Thiazin-red R, reference compound with known activity and aggregated protein is used.
(§6) Assay is performed in Perkin Elmer OptiPlate 384, black, 45 ul assay volume, assay buffer is DPBS no CaCl2 no MgCl2 (GIBCO N. 14020). Tested compounds are diluted in DMSO and 2 μl is added to the assay ([…]). Assay is started by the addition of the aggregated protein (competitive condition). Plates are shortly shacked (1 min with Sterico variomag teleshake) and incubated for 30 min at room temperature. Measurement are done with En:Vision (Perkin Elmer), at Excitation 531 nm/Emission 595 nm.

Test [2] concerns the target T2, aggregated synthetic Aβ40 (Homo sapiens, UniProt P05067).
T2 construct: Synthetic Aβ40 is aggregated at a concentration of 50 μM
Description: Thiazin-red R displacement fluorescence assay on aggregated A-beta. Format: binding. The note with it: displacement of Thiazin-red R from aggregated Aβ40; compound 0.3 nM to 10000 nM; 30 min room temperature; Ex 531 nm/Em 595 nm. As to the method: as §1, §2, §3, §4, §5, §6

Some results are limits rather than exact numbers.

T1 sequence (P10636 whole entry): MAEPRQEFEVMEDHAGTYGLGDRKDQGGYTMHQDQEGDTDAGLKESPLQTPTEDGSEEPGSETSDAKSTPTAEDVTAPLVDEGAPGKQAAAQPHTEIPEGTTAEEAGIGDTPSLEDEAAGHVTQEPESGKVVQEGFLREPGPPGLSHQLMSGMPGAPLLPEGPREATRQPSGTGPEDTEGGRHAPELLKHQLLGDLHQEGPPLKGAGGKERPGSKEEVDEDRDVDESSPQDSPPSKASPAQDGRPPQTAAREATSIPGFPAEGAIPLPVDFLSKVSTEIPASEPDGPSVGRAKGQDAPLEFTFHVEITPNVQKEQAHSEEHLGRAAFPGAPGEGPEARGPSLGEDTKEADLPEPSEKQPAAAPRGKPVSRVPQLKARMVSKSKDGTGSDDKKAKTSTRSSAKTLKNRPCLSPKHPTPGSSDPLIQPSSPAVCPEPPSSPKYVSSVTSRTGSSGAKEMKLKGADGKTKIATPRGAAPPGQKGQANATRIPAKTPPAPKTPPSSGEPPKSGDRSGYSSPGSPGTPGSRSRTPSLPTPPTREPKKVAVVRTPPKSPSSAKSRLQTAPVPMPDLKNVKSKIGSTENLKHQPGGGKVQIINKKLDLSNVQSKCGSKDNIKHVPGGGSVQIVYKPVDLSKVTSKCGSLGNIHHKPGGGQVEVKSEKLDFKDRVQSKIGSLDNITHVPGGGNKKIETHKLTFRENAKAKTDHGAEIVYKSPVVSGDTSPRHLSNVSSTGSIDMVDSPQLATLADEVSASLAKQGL
T2 sequence (P05067 672-711 limits assumed): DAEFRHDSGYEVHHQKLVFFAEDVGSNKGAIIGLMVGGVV

As to `COc1cc(/C=c2\sc3nc(-c4ccc(C(=O)NCCCF)cc4)cn3c2=O)cc(Cl)c1O` (single isomer, unassigned) [Example 133], the IC50 was 2 nM in test [1] and 86 nM in test [2].

For the molecule `COc1cc(/C=c2\sc3nc(-c4ccncc4)cn3c2=O)cc(OC)c1O` [Example 1, 2-[1-(4-Hydroxy-3,5-dimethoxy-phenyl)-meth-(Z)-ylidene]-6-pyridin-4-yl-imidazo[2,1-b]thiazol-3-one], the IC50 in test [1] was found to be 5 nM; in test [2], 93 nM.

In the case of `COc1cc(/C=c2\sc3nc(-c4ccc(Cl)cc4)cn3c2=O)cc(OC)c1O` [Example 2, 6-(4-Chloro-phenyl)-2-[1-(4-hydroxy-3,5-dimethoxy-phenyl)-meth-(Z)-ylidene]-imidazo[2,1-b]thiazol-3-one], the values for the IC50 in test [1] and in test [2] were 2 nM and 7 nM, respectively.

As for `COc1cc(/C=c2\sc3nc(-c4ccc(Cl)cc4)cn3c2=O)ccc1O` [Example 3, 6-(4-Chloro-phenyl)-2-[1-(4-hydroxy-3-methoxy-phenyl)-meth-(Z)-ylidene]-imidazo[2,1-b]thiazol-3-one], the IC50 in test [1] stood at 49 nM; in test [2], 215 nM.

In the case of `COc1cc(/C=c2\sc3nc(-c4ccc(Cl)cc4)cn3c2=O)cc(F)c1O` [Example 4, 6-(4-Chloro-phenyl)-2-[1-(3-fluoro-4-hydroxy-5-methoxy-phenyl)-meth-(Z)-ylidene]-imidazo[2,1-b]thiazol-3-one], the IC50 in test [1] was 11 nM; in test [2], 393 nM.

With `CCOc1cc(/C=c2\sc3nc(-c4ccc(Cl)cc4)cn3c2=O)ccc1O` [Example 5, 6-(4-Chloro-phenyl)-2-[1-(3-ethoxy-4-hydroxy-phenyl)-meth-(Z)-ylidene]-imidazo[2,1-b]thiazol-3-one], the IC50 in test [1] amounted to 178 nM; in test [2], 1160 nM.

Regarding `COc1cc(/C=c2\sc3nc(-c4ccc(Cl)cc4)cn3c2=O)cc(Cl)c1O` [Example 6, 6-(4-Chloro-phenyl)-2-[1-(3-chloro-4-hydroxy-5-methoxy-phenyl)-meth-(Z)-ylidene]-imidazo[2,1-b]thiazol-3-one], the values for the IC50 in test [1] and in test [2] were 2 nM and 32 nM, respectively.

As to `COc1cc(/C=c2\sc3nc(-c4ccc(Cl)cc4)cn3c2=O)cc(Br)c1O` [Example 7, 6-(4-Chloro-phenyl)-2-[1-(3-bromo-4-hydroxy-5-methoxy-phenyl)-meth-(Z)-ylidene]-imidazo[2,1-b]thiazol-3-one], the IC50 amounted to 2 nM in test [1] and 18 nM in test [2].

Take `COc1cc(/C=c2\sc3nc(-c4ccc(Cl)cc4)cn3c2=O)cc(O)c1O` [Example 8, 6-(4-Chloro-phenyl)-2-[1-(3,4-dihydroxy-5-methoxy-phenyl)-meth-(Z)-ylidene]-imidazo[2,1-b]thiazol-3-one]: the IC50 in test [1] came to 5 nM; in test [2], 18 nM.

Take `COc1cc(/C=c2\sc3nc(-c4ccccc4C)cn3c2=O)cc(F)c1O` [Example 9, 2-[1-(3-Fluoro-4-hydroxy-5-methoxy-phenyl)-meth-(Z)-ylidene]-6-o-tolyl-imidazo[2,1-b]thiazol-3-one]: the IC50 in test [1] stood at 105 nM; in test [2], 706 nM.

For the molecule `COc1cc(/C=c2\sc3nc(-c4ccccc4C)cn3c2=O)cc(Cl)c1O` [Example 10, 2-[1-(3-Chloro-4-hydroxy-5-methoxy-phenyl)-meth-(Z)-ylidene]-6-o-tolyl-imidazo[2,1-b]thiazol-3-one], the figures for the IC50 in test [1] and in test [2] were 28 nM and 1220 nM, respectively.

In the case of `COc1cc(/C=c2\sc3nc(-c4ccccc4C)cn3c2=O)ccc1O` [Example 11, 2-[1-(4-hydroxy-3-methoxy-phenyl)-meth-(Z)-ylidene]-6-o-tolyl-imidazo[2,1-b]thiazol-3-one], the results for the concentration for half-maximal inhibition (IC50) in test [1] and in test [2] were 837 nM and 1280 nM, respectively.

As for `COc1cc(/C=c2\sc3nc(-c4ccnc(C)c4)cn3c2=O)ccc1O` [Example 12, 2-[1-(4-Hydroxy-3-methoxy-phenyl)-meth-(Z)-ylidene]-6-(2-methyl-pyridin-4-yl)-imidazo[2,1-b]thiazol-3-one], the IC50 in test [1] was 79 nM; in test [2], greater than 10000 nM.

For `COc1cc(/C=c2\sc3nc(-c4cc(C)nc(C)c4)cn3c2=O)ccc1O` [Example 13, 2-[1-(4-Hydroxy-3-methoxy-phenyl)-meth-(Z)-ylidene]-6-(2,6-dimethyl-pyridin-4-yl)-imidazo[2,1-b]thiazol-3-one], the results for the IC50 in test [1] and in test [2] were 91 nM and greater than 10000 nM, respectively.

As to `COc1ccc(-c2nc3s/c(=C\c4cc(Cl)c(O)c(OC)c4)c(=O)n3c2C)cc1` [Example 14, 2-[1-(3-Chloro-4-hydroxy-5-methoxy-phenyl)-meth-(Z)-ylidene]-6-(4-methoxy-phenyl)-5-methyl-imidazo[2,1-b]thiazol-3-one], the IC50 in test [1] was found to be 37 nM; in test [2], 466 nM.

For `COc1ccc(-c2nc3s/c(=C\c4cc(F)c(O)c(OC)c4)c(=O)n3c2C)cc1` [Example 15, 2-[1-(3-Fluoro-4-hydroxy-5-methoxy-phenyl)-meth-(Z)-ylidene]-6-(4-methoxy-phenyl)-5-methyl-imidazo[2,1-b]thiazol-3-one], the IC50 in test [1] was 53 nM; in test [2], 437 nM.

As to `COc1cc(/C=c2\sc3nc(-c4ccnc(C)c4)cn3c2=O)cc(OC)c1O` [Example 16, 2-[1-(4-Hydroxy-3,5-dimethoxy-phenyl)-meth-(Z)-ylidene]-6-(2-methyl-pyridin-4-yl)-imidazo[2,1-b]thiazol-3-one], the results for the IC50 in test [1] and in test [2] were 8 nM and 32 nM, respectively.

`COc1cc(/C=c2\sc3nc(-c4cc(C)nc(C)c4)cn3c2=O)cc(OC)c1O` [Example 17, 2-[1-(4-Hydroxy-3,5-dimethoxy-phenyl)-meth-(Z)-ylidene]-6-(2,6-dimethyl-pyridin-4-yl)-imidazo[2,1-b]thiazol-3-one]: the IC50 in test [1] stood at 5 nM; in test [2] it was 68 nM.

For the molecule `COc1cc(/C=c2\sc3nc(-c4cccc(OC(F)(F)F)c4)cn3c2=O)cc(F)c1O` [Example 35, 2-[1-(3-Fluoro-4-hydroxy-5-methoxy-phenyl)-meth-(Z)-ylidene]-6-(3-trifluoromethoxy-phenyl)-imidazo[2,1-b]thiazol-3-one], the IC50 in test [1] was found to be 13 nM.

For the molecule `COc1cc(/C=c2\sc3nc(-c4cccc(C#N)c4)cn3c2=O)cc(F)c1O` [Example 38, 3-{2-[1-(3-Fluoro-4-hydroxy-5-methoxy-phenyl)-meth-(Z)-ylidene]-3-oxo-2,3-dihydro-imidazo[2,1-b]thiazol-6-yl}-benzonitrile], in test [2], the IC50 was greater than 10000 nM.

With `COc1cc(/C=c2\sc3nc(-c4cccc(C#N)c4)cn3c2=O)cc(OC)c1O` [Example 50, 3-{2-[1-(4-Hydroxy-3,5-dimethoxy-phenyl)-meth-(Z)-ylidene]-3-oxo-2,3-dihydro-imidazo[2,1-b]thiazol-6-yl}-benzonitrile], in test [1], the IC50 was 7 nM.

For the molecule `COc1ccccc1-c1cn2c(=O)/c(=C/c3cc(Cl)c(O)c(OC)c3)sc2n1` [Example 55, 2-[1-(3-Chloro-4-hydroxy-5-methoxy-phenyl)-meth-(Z)-ylidene]-6-(2-methoxy-phenyl)-imidazo[2,1-b]thiazol-3-one], the IC50 in test [1] is 103 nM.

`COc1cc(/C=c2\sc3nc(-c4cc(F)ccc4F)cn3c2=O)cc(Cl)c1O` [Example 56, 2-[1-(3-Chloro-4-hydroxy-5-methoxy-phenyl)-meth-(Z)-ylidene]-6-(2,5-difluoro-phenyl)-imidazo[2,1-b]thiazol-3-one]: the IC50 in test [1] was 27 nM.

The molecule `COc1cc(/C=c2\sc3nc(-c4cccc(C#N)c4)cn3c2=O)cc(F)c1O` [Example 73, 3-{2-[1-(3-Fluoro-4-hydroxy-5-methoxy-phenyl)-meth-(Z)-ylidene]-3-oxo-2,3-dihydro-imidazo[2,1-b]thiazol-6-yl}-benzonitrile] had an IC50 in test [2] of 13 nM.

On to `COc1cc(/C=c2\sc3nc(-c4ccccc4OCCF)cn3c2=O)cc(Cl)c1O` [Example 83, 2-[1-(3-Chloro-4-hydroxy-5-methoxy-phenyl)-meth-(Z)-ylidene]-6-(2-(2-fluoroethoxyl)phenyl)-imidazo[2,1-b]thiazol-3-one], for which the IC50 in test [1] is 173 nM.

As to `COc1cc(/C=c2\sc3nc(-c4ccccc4OCCOCCOCCF)cn3c2=O)cc(Cl)c1O` [Example 96, 2-[1-(3-Chloro-4-hydroxy-5-methoxy-phenyl)-meth-(Z)-ylidene]-6-(2-{2-[2-(2-fluoro-ethoxy)-ethoxy]-ethoxy}-phenyl)-imidazo[2,1-b]thiazol-3-one], in test [1], the IC50 came out at 102 nM.

Consider `COc1cc(/C=c2\sc3nc(-c4cccc(C(=O)N(C)CCF)c4)cn3c2=O)cc(Cl)c1O` [Example 120, 3-{2-[1-(3-Chloro-4-hydroxy-5-methoxy-phenyl)-meth-(Z)-ylidene]-3-oxo-2,3-dihydro-imidazo[2,1-b]thiazol-6-yl}-N-(2-fluoro-ethyl)-N-methyl-benzamide], for which the IC50 in test [1] was 49 nM.
